For this data set the following is noted: as compared to prazoles such as panto prazole sodium and omeprazole sodium.

Consider `COCCCOc1ccnc(C[S+]([O-])c2nc3ccccc3[n-]2)c1C.[Na+]` (stereo not shown) [Form X, 2-[[[4-(3-methoxypropoxy)-3-methyl-2-pyridinyl]-methyl]sulfinyl]-1H-benzimidazole sodium], for which the “chemical stability such as thermo stability and light stability” value is “better chemical stability”.

For the origin of these results see patent publication US20050234103A1, “Crystalline forms of rabeprazole sodium” (priority 2002, published 2005).
